Reference: US9505741B2, “Prolylhydroxylase inhibitors and methods of use” (CORNELL UNIVERSITY, priority 2010, dated 2016)
pIC50, pKi: −log10 of the molar value.

How the values were obtained:
[1] = test system: HIF ODD-luc reporter (HIF PHD-controlled stability); assay: HTS with cell-based HIF ODD-luciferase reporter (SH-SY5Y-ODD-luc cells); parameters: species or system human; details: three hours, SH-SY5Y-ODD-luc; for fold reporter activation over background: 10 μM; for activation at 10 µM: Homo sapiens, 3 h, read-out: reporter activation (%) relative to ciclopirox (100%) and DMSO (0%)
Description: For HTS, a cell-based reporter system was employed. The cell-based reporter system was generated by fusing HIF-1a oxygen degradable domain (ODD) to luciferase (Safran M. et al., PNAS, 2006, 103, 105-110), which represents a cell-based capture assay monitored by the consumption of the luciferase-labeled HIF substrate under the conditions more physiological than in vitro test tubes. In accord with their structure activity relationship in reporter assay, the best “hits” stabilize HIF1, upregulate known HIF target genes in a human neuronal line, and exert neuroprotective effects in established model of oxidative stress in cortical neurons.
The reporter cell lines constitutively expressing ODD-luc (human neuroblastoma, SH-SY5Y) were stable for more than one year without significant change in their response to canonical PHD inhibitors such as DFO, dihydroxybenzoate (DHB), dimethyloxalylglycine (DMOG), and ciclopirox (FIG. 1B). In order to verify the specificity of luciferase changes as an assay for PHD activity, several control lines were developed: the control line expressing ODD-luc with proline 564 and 567 mutated to Ala generates luciferase fusion that cannot be degraded and experimentally identifies a ceiling level of ODD-luc protein attainable in these cells. The background signal for the wild-type HIF ODD-luc line (PYIP) corresponds to approximately 5-6% of the ODD-luc levels in the control line AYIA (double mutant P564A/P567A line) (FIG. 2). Treatment with 10 μM ciclopirox results in a 10-fold increase of a background signal for the wild-type ODD-luc reporter (PYIP line), i.e. reaches almost 50% of the threshold value (FIG. 2).
The assay was optimized for HTS format to provide Z values above 0.7. SH-SY5Y-ODD-luc cells were plated into 384—well white flat-bottom plates at 7,000 cell/well in 30 μl of serum and incubated overnight at 37° C., 5% CO2. The next day, compounds were added to a final concentration of 10 μM, plates were incubated for three hours at 37° C., and luciferase activity was measured using SteadyGlo™ reagent (Promega). Each plate had two internal standards, ciclopirox (100%), and DMSO (0%). The reporter activation (%) was calculated as a ratio (L−LDMSO)/(Lciclopirox−LDMSO). Hits were defined as those >25%. HTS of 85,000 compounds was performed at Rockefeller HTS Resource Center. 295 hits from the initial screen have been tested in quadruplicate, 160 were confirmed. Classification into 10 structural clusters has been done manually; 25 hits were singletons.

HIF1α protein = assay: HIF immunoblot in SH-SY5Y neuroblastoma cells; type: cell-based, human; details: 5 μM, three hours
Protocol: After three hours of 5 μM drug treatment, cells were scraped in ice cold PBS and centrifuged at 1,000×g per 5 min. The pellet was used for nuclear extract preparation with the NE-PER Nuclear and Cytoplasmic Extraction kit (Pierce). After SDS-PAGE followed by transfer to a nitrocellulose membrane, the latter was incubated overnight at 4° C. with primary polyclonal antibody against HIF-1α (Upstate) and monoclonal antibody against β-actin (Sigma) (dilution 1:250 and 1:5000, respectively, in Odyssey Blocking Buffer). Secondary fluorophore conjugated Odyssey IRDye-680 and IRD-800 antibodies (LI-COR Biosciences) were added at 1:20,000 in Odyssey Blocking Buffer, and incubated for one hour at room temperature. Immunoreactive proteins were detected using Odyssey IR imaging system (LI-COR Biosciences).

[2] = test system: HIF ODD-luc reporter (HIF PHD-controlled stability); assay: ODD-luc reporter, concentration titration and kinetics of reporter activation (extended SAR); type: cell-based, human; details: for pKi: linear plot 1/(K0−v) vs inhibitor concentration, read-out: apparent inhibition constant from time course of reporter activation
Description: The HIF ODD-luciferase reporter system is controlled by the rate of PHD catalyzed reaction, and from an enzyme kinetics point of view, it is a “capture assay” monitored by the consumption of a substrate, the heterologously expressed HIF ODDluciferase fusion protein. In the kinetic regime, i.e. monitoring the time-course of luminescence changes (FIG. 3A), the ODD-luc reporter system permits quantitative characterization of promoter capacity (Ko, rate of fusion protein generation), enzyme activity, and inhibition constant determination.
The rate of fusion accumulation equals the rate of its production (Ko) minus the rate of the rate-limiting step, controlled by HIF PHDs, which obeys Michaelis-Menten kinetics, as follows: v=d[ODDluc]/dt=K0−k1[PHD][ODDluc]/{Km(1+[I]/K1)+[ODDluc]} (Eq.1)
The background luminescence signal calibrated with recombinant luciferase allows an estimation of the steady-state concentration of the ODD-luc fusion protein. Under the conditions used the steady-state value of 60 rlu (relative light units) corresponds to 1 pg luciferase protein; dividing this number by the total cell volume taken as a single cell volume (233μ^3) multiplied by 30,000 cells/well density (number of cells in a 96 well dish), the ODD-luc fusion protein steady-state concentration is found to be equal to 2.3 nM, which is well below all reported Km values for HIF1 (Dao, J. H., et al., Anal Biochem 384, 213-223 2009; Hewitson, K. S., et al., Methods Enzymol 435, 25-42 2007; Koivunen, P., et al., J Biol Chem 281, 28712-28720 2006; Tuckerman, J. R., et al., FEBS Lett 576, 145-150 2004. Therefore, it is preferable to work under nonsaturating conditions with respect to HIF substrate, i.e. optimal conditions for selecting inhibitors competitive against HIF substrate. Moreover, as compared to the in vitro assay, which uses a 19 amino acid peptide fragment surrounding the oxygen dependent domain (ODD), the instant ODD-luciferase construct contains 123 amino acid acids, and thus, more closely emulates the behavior of native HIF. The initial concentration of fusion can be considered much lower than Km, and thus, can be ignored in the rate equation: v=d[ODDluc]/dt=K0−k1[PHD][ODDluc]/Km(1+[I]/K1) (Eq.2)
Knowing the capacity of the promoter, the inhibition constant can be determined, but not the inhibition type, from the initial rates of signal accumulation at varied fixed concentrations of potential inhibitor. The capacity of promoter, K0 can be determined under the conditions of total inhibition of PHD activity by means of complete iron deprivation achieved in the presence of high concentrations of ciclopirox, i.e. when the increase in the ciclopirox concentrations give no further increase in the rate of luciferase signal growth (FIG. 3B). […]

[3] = Iron binding by calcein displacement from its iron complex; type: physicochemical
Protocol: The iron chelation ability is determined by displacement of calcein from its complex with iron monitored by fluorescence (excitation 490 nm, emission 523 nm, cut-off 515 nm) on a Spectramax M5e platereader (Molecular Devices). The apparent binding constant for calcein (ca.50 nM) was determined from Fe titration curve for 1 μM calcein in 5 mM Tris-HCl buffer, pH 7.5. The ratio between the iron binding constant for calcein and a particular compound, i.e., KQ/KCa, was estimated by fitting the titration curve into the dependence of [Fe]o vs. Y, where Y═[Ca—Fe]/[Ca] is a ratio of calcein-bound Fe to free (fluorescent) calcein: [Fe]o=KCaY+[Ca]oY/(Y+1)+[Q]oY/(Y+KQ/KCa) (Eq.4)
The association rate constant was determined as the second order rate constant for calcein displacement from its complex with iron (1 μM:1 μM) upon addition of an oxyquinoline (5-20 μM) calculated from the slope of a linear plot of the initial rate of calcein release vs. the concentration of oxyquinoline added. All experiments were performed in triplicates or more. All values are presented as mean±S.E.M.

| SMILES | fold reporter activation over background [1] | activation at 10 µM [1] | pKi [2] | also measured |
| --- | --- | --- | --- | --- |
| Oc1cccc2cccnc12 [8-hydroxyquinoline, reference compound] | 4-5 fold | 35 to 45% |  | HIF1α protein stabilization (HIF1α protein): not |
| CCOC(=O)c1ccc(O)c(O)c1 [DHB, Ethyl-3,4-dihydroxybenzoate] |  |  | 3.28 | concentration at which the reporter is activated ([2]; FIG. 1B): > 50 µM |
| COC(=O)CNC(=O)C(=O)OC [DMOG, dimethyloxalylglycine] |  |  | 2.89 |  |
| NNc1nc(-c2ccccc2)cc(-c2ccccc2)n1 [II, 2-hydrazinyl-4,6-diphenylpyrimidine] | 6.7 fold | 64% |  | iron binding / chelation ability in solution, in words [3]: no iron chelation properties in solution |
| N[C@@H](Cc1ccc(O)c(O)c1)C(=O)O [L-Dopa, reference compound] | 3 fold | 21% |  | pIC50 ([2]; Homo sapiens, ODD-luc reporter): 4.82 |
